# From PubChem BioAssay (NCI)
#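 Test compounds were applied to cells in 96-well plates for 48 hours at 5 doses. TGI marks complete inhibition of growth.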
# Key:
# Experiment in all cases: DTP human tumour cell line panel, 48 h
# UO-31 renal = system: UO-31 renal
# XF 498 CNS = system: XF 498 CNS
# HT29 colon = system: HT29 colon
# SNB-19 CNS = system: SNB-19 CNS
# M19-MEL melanoma = system: M19-MEL melanoma
# OVCAR-4 ovarian = system: OVCAR-4 ovarian
# OVCAR-8 ovarian = system: OVCAR-8 ovarian
# DMS 273 small cell lung = system: DMS 273 small cell lung
# DMS 114 small cell lung = system: DMS 114 small cell lung
# SK-OV-3 ovarian = system: SK-OV-3 ovarian
# A549 NSCLC = system: A549 NSCLC
# NCI-H226 lung = system: NCI-H226 lung
# CAKI-1 renal = system: CAKI-1 renal
# HCC-2998 colon = system: HCC-2998 colon
# SF-295 CNS = system: SF-295 CNS
# ACHN renal = system: ACHN renal
# TK-10 renal = system: TK-10 renal
# NCI-H460 lung = system: NCI-H460 lung
# SR leukemia = system: SR leukemia
# SNB-75 CNS = system: SNB-75 CNS
structure (smiles),measurement,setting,value
COc1ccc(N[C@@H]2c3cc4c(cc3C(c3cc(OC)c(O)c(OC)c3)[C@H]3C(=O)OCC32)OCO4)cc1OC (stereo partly drawn),TGI,UO-31 renal,> 100 µM
same,TGI,XF 498 CNS,> 61.8 µM
same,TGI,HT29 colon,> 20.7 µM
same,TGI,SNB-19 CNS,> 79.2 µM
same,TGI,M19-MEL melanoma,> 100 µM
same,TGI,OVCAR-4 ovarian,> 100 µM
same,TGI,OVCAR-8 ovarian,> 100 µM
same,TGI,DMS 273 small cell lung,> 100 µM
same,TGI,DMS 114 small cell lung,> 21.9 µM
same,TGI,SK-OV-3 ovarian,> 52.1 µM
COc1cc(C(=O)OC2CC34CCNC35CC(OC5(OC)C2O)c2cc3c(cc24)OCO3)ccc1O (stereo not drawn),TGI,A549 NSCLC,> 100 µM
same,TGI,NCI-H226 lung,> 100 µM
same,TGI,CAKI-1 renal,> 100 µM
same,TGI,HCC-2998 colon,> 100 µM
same,TGI,SF-295 CNS,> 100 µM
same,TGI,HT29 colon,> 100 µM
same,TGI,ACHN renal,> 100 µM
same,TGI,TK-10 renal,> 100 µM
same,TGI,NCI-H460 lung,> 100 µM
same,TGI,SR leukemia,> 100 µM
same,TGI,SNB-19 CNS,> 100 µM
same,TGI,OVCAR-4 ovarian,> 100 µM
same,TGI,SNB-75 CNS,> 100 µM
same,TGI,OVCAR-8 ovarian,> 100 µM
same,TGI,SK-OV-3 ovarian,> 100 µM
S=C1Cc2c(-c3ccccc3)cc(-c3ccc(Cl)cc3)nc2-c2ccccc2N1,TGI,UO-31 renal,> 24 µM
same,TGI,A549 NSCLC,> 33.9 µM
same,TGI,NCI-H226 lung,> 31.9 µM
same,TGI,CAKI-1 renal,3.33 µM
same,TGI,HCC-2998 colon,> 36.8 µM
same,TGI,SF-295 CNS,18.9 µM
same,TGI,HT29 colon,15.2 µM
same,TGI,ACHN renal,2.69 µM
same,TGI,TK-10 renal,8.41 µM
same,TGI,NCI-H460 lung,> 100 µM
same,TGI,SR leukemia,> 100 µM
same,TGI,SNB-19 CNS,4.14 µM
same,TGI,OVCAR-4 ovarian,1.71 µM
same,TGI,SNB-75 CNS,3.14 µM
same,TGI,OVCAR-8 ovarian,4.64 µM
same,TGI,SK-OV-3 ovarian,7.26 µM
CCCCCC(/C=C/c1ncccc1OCCCCCC(=O)O)=N\NC1=NCCN1,TGI,UO-31 renal,> 100 µM
same,TGI,A549 NSCLC,> 100 µM
same,TGI,NCI-H226 lung,> 100 µM
same,TGI,CAKI-1 renal,> 100 µM
same,TGI,XF 498 CNS,54.8 µM
same,TGI,HCC-2998 colon,> 100 µM
same,TGI,SF-295 CNS,> 100 µM
same,TGI,HT29 colon,> 100 µM
same,TGI,ACHN renal,> 100 µM
same,TGI,TK-10 renal,> 100 µM
same,TGI,NCI-H460 lung,> 100 µM
same,TGI,SR leukemia,> 100 µM
same,TGI,SNB-19 CNS,> 100 µM
same,TGI,M19-MEL melanoma,> 100 µM
same,TGI,OVCAR-4 ovarian,> 100 µM
same,TGI,SNB-75 CNS,> 100 µM
same,TGI,OVCAR-8 ovarian,> 100 µM
same,TGI,DMS 273 small cell lung,> 100 µM
same,TGI,DMS 114 small cell lung,> 100 µM
same,TGI,SK-OV-3 ovarian,> 100 µM
C[Si](C)(C)/C=C/CN1C(=O)CCC1=O,TGI,UO-31 renal,> 100 µM
same,TGI,A549 NSCLC,> 100 µM
same,TGI,XF 498 CNS,> 100 µM
same,TGI,HCC-2998 colon,> 100 µM
same,TGI,HT29 colon,> 100 µM
same,TGI,ACHN renal,> 100 µM
same,TGI,TK-10 renal,> 100 µM
same,TGI,NCI-H460 lung,> 100 µM
same,TGI,SR leukemia,> 100 µM
same,TGI,SNB-19 CNS,> 100 µM
same,TGI,M19-MEL melanoma,> 100 µM
same,TGI,SNB-75 CNS,> 100 µM
same,TGI,DMS 273 small cell lung,> 100 µM
same,TGI,DMS 114 small cell lung,> 100 µM
same,TGI,SK-OV-3 ovarian,> 100 µM
COC(=O)c1cc2c(cc1C(=O)OC)[C@@]1(C)CCCC(C)(C)C1CC2 (stereo partly drawn),TGI,UO-31 renal,35 µM
same,TGI,A549 NSCLC,55.9 µM
same,TGI,NCI-H226 lung,33.8 µM
same,TGI,HCC-2998 colon,34.4 µM
same,TGI,SF-295 CNS,37 µM
same,TGI,HT29 colon,58.2 µM
same,TGI,ACHN renal,36.4 µM
same,TGI,TK-10 renal,39 µM
same,TGI,NCI-H460 lung,43.8 µM
same,TGI,SR leukemia,57.7 µM
same,TGI,SNB-19 CNS,53.7 µM
same,TGI,OVCAR-4 ovarian,> 100 µM
same,TGI,SNB-75 CNS,82.1 µM
same,TGI,OVCAR-8 ovarian,74 µM
Cc1ccc(CN2CCN(Cc3ccc(C)o3)C(C)C2)o1 (stereo not drawn),TGI,UO-31 renal,> 100 µM
same,TGI,A549 NSCLC,> 100 µM
same,TGI,NCI-H226 lung,> 100 µM
same,TGI,CAKI-1 renal,> 100 µM
same,TGI,HCC-2998 colon,> 100 µM
same,TGI,SF-295 CNS,> 100 µM
same,TGI,HT29 colon,> 100 µM
same,TGI,ACHN renal,> 100 µM
same,TGI,TK-10 renal,> 100 µM
same,TGI,NCI-H460 lung,> 100 µM
same,TGI,SR leukemia,> 100 µM
same,TGI,SNB-19 CNS,> 100 µM
same,TGI,OVCAR-4 ovarian,> 100 µM
same,TGI,SNB-75 CNS,> 100 µM
same,TGI,OVCAR-8 ovarian,> 100 µM
same,TGI,SK-OV-3 ovarian,> 100 µM
CC(=O)c1cccc(Nc2nc3ccccc3c3[nH]c4ccccc4c23)c1,TGI,UO-31 renal,> 100 µM
same,TGI,A549 NSCLC,15.3 µM
same,TGI,CAKI-1 renal,23.4 µM
same,TGI,SF-295 CNS,15.9 µM
same,TGI,HT29 colon,17 µM
same,TGI,ACHN renal,40.5 µM
same,TGI,TK-10 renal,37 µM
same,TGI,NCI-H460 lung,4.36 µM
same,TGI,SNB-19 CNS,> 100 µM
same,TGI,OVCAR-8 ovarian,74.9 µM
same,TGI,SK-OV-3 ovarian,43.7 µM
N#CCCN(CCC#N)c1ccc(/C=C(/NC(=O)Nc2ccccc2Cl)NC(=O)c2cc([N+](=O)[O-])ccc2Cl)cc1,TGI,UO-31 renal,> 100 µM
same,TGI,A549 NSCLC,> 100 µM
same,TGI,NCI-H226 lung,> 100 µM
same,TGI,CAKI-1 renal,> 100 µM
same,TGI,XF 498 CNS,> 100 µM
same,TGI,HCC-2998 colon,> 100 µM
same,TGI,SF-295 CNS,> 100 µM
same,TGI,ACHN renal,> 100 µM
same,TGI,TK-10 renal,> 100 µM
same,TGI,SR leukemia,> 100 µM
same,TGI,SNB-19 CNS,> 100 µM
same,TGI,M19-MEL melanoma,> 100 µM
same,TGI,OVCAR-4 ovarian,> 100 µM
same,TGI,OVCAR-8 ovarian,> 100 µM
same,TGI,DMS 273 small cell lung,> 100 µM
same,TGI,DMS 114 small cell lung,> 100 µM
same,TGI,SK-OV-3 ovarian,> 100 µM
O=S(=O)(CF)OCCCCOS(=O)(=O)CF,TGI,UO-31 renal,> 100 µM
same,TGI,NCI-H226 lung,> 100 µM
same,TGI,CAKI-1 renal,> 100 µM
same,TGI,SF-295 CNS,> 100 µM
same,TGI,HT29 colon,> 100 µM
same,TGI,ACHN renal,> 100 µM
same,TGI,TK-10 renal,> 100 µM
same,TGI,NCI-H460 lung,> 100 µM
same,TGI,SNB-19 CNS,> 100 µM
same,TGI,M19-MEL melanoma,> 100 µM
same,TGI,SNB-75 CNS,> 100 µM
same,TGI,OVCAR-8 ovarian,> 100 µM
same,TGI,DMS 273 small cell lung,> 100 µM
same,TGI,DMS 114 small cell lung,> 100 µM
same,TGI,SK-OV-3 ovarian,> 100 µM
CN(C(=O)c1ccccc1)c1ccc2c(c1)C(=O)c1ccccc1C2=O,TGI,UO-31 renal,> 100 µM
same,TGI,NCI-H226 lung,> 100 µM
same,TGI,CAKI-1 renal,> 100 µM
same,TGI,XF 498 CNS,> 100 µM
same,TGI,HCC-2998 colon,> 100 µM
same,TGI,SF-295 CNS,> 100 µM
same,TGI,HT29 colon,> 100 µM
same,TGI,ACHN renal,> 100 µM
same,TGI,TK-10 renal,> 100 µM
same,TGI,NCI-H460 lung,> 100 µM
same,TGI,SR leukemia,> 100 µM
same,TGI,M19-MEL melanoma,> 100 µM
same,TGI,OVCAR-4 ovarian,> 100 µM
same,TGI,OVCAR-8 ovarian,> 100 µM
same,TGI,DMS 273 small cell lung,> 100 µM
same,TGI,DMS 114 small cell lung,> 100 µM
same,TGI,SK-OV-3 ovarian,> 100 µM
CCCCCCCCCCCCCCCCCCOCC(O)CO (stereo not drawn),TGI,UO-31 renal,25 µM
same,TGI,A549 NSCLC,5.32 µM
same,TGI,NCI-H226 lung,> 24.2 µM
same,TGI,CAKI-1 renal,> 5.39 µM
same,TGI,XF 498 CNS,> 25 µM
same,TGI,HCC-2998 colon,> 25 µM
same,TGI,SF-295 CNS,> 25 µM
same,TGI,HT29 colon,> 15.8 µM
same,TGI,NCI-H460 lung,> 23 µM
same,TGI,SNB-19 CNS,> 25 µM
same,TGI,M19-MEL melanoma,24.6 µM
same,TGI,OVCAR-4 ovarian,> 25 µM
same,TGI,SNB-75 CNS,24.8 µM
same,TGI,OVCAR-8 ovarian,> 25 µM
same,TGI,DMS 273 small cell lung,> 7.73 µM
same,TGI,DMS 114 small cell lung,> 25 µM
same,TGI,SK-OV-3 ovarian,> 25 µM
